Test: xn = mol fraction of the nth substance listed
Conditions: 101 kPa

Work on O + CCOS(=O)(=O)[O-].CC[n+]1ccn(C)c1 yielded a viscosity (293.15 K, x2 = 0) of 0.97 mPa·s, a viscosity (298.15 K, x2 = 0) of 0.87 mPa·s and a viscosity (303.15 K, x2 = 0) of 0.78 mPa·s. The viscosity (313.15 K, x2 = 0) was 0.64 mPa·s.
CCOS(=O)(=O)[O-].CC[n+]1ccn(C)c1 + O showed a viscosity (293.15 K, x1 = 0.001) of 0.99 mPa·s, a viscosity (293.15 K, x1 = 0.003) of 1.04 mPa·s and a viscosity (293.15 K, x1 = 0.004) of 1.07 mPa·s. For the same compound, the viscosity (293.15 K, x1 = 0.006) was 1.14 mPa·s, the viscosity (293.15 K, x1 = 0.008) was 1.2 mPa·s and the viscosity (293.15 K, x1 = 0.013) was 1.34 mPa·s. The viscosity (293.15 K, x1 = 0.019) was 1.54 mPa·s, the viscosity (293.15 K, x1 = 0.032) was 1.93 mPa·s and the viscosity (293.15 K, x1 = 0.047) was 2.48 mPa·s. It also gave a viscosity (293.15 K, x1 = 0.071) of 3.42 mPa·s, a viscosity (293.15 K, x1 = 0.103) of 4.8 mPa·s and a viscosity (293.15 K, x1 = 0.229) of 11 mPa·s. For the same compound, the viscosity (293.15 K, x1 = 0.303) was 15.2 mPa·s, the viscosity (293.15 K, x1 = 0.473) was 27.4 mPa·s and the viscosity (293.15 K, x1 = 0.588) was 39.5 mPa·s. For the same compound, the viscosity (293.15 K, x1 = 0.642) was 46.7 mPa·s, the viscosity (293.15 K, x1 = 1) was 122 mPa·s and the electrical conductivity (298.15 K, x1 = 0.001) was 0.29 S/m. The electrical conductivity (298.15 K, x1 = 0.004) was 1.1 S/m, the viscosity (298.15 K, x1 = 0.004) was 0.97 mPa·s and the electrical conductivity (298.15 K, x1 = 0.006) was 1.5 S/m. It also gave a viscosity (298.15 K, x1 = 0.006) of 1.02 mPa·s, an electrical conductivity (298.15 K, x1 = 0.008) of 1.9 S/m and a viscosity (298.15 K, x1 = 0.008) of 1.07 mPa·s. It also gave an electrical conductivity (298.15 K, x1 = 0.013) of 2.5 S/m, a viscosity (298.15 K, x1 = 0.013) of 1.19 mPa·s and an electrical conductivity (298.15 K, x1 = 0.019) of 2.9 S/m. It also gave a viscosity (298.15 K, x1 = 0.019) of 1.36 mPa·s, an electrical conductivity (298.15 K, x1 = 0.032) of 3.7 S/m and a viscosity (298.15 K, x1 = 0.032) of 1.7 mPa·s. It also gave an electrical conductivity (298.15 K, x1 = 0.071) of 4.1 S/m, a viscosity (298.15 K, x1 = 0.071) of 2.97 mPa·s and an electrical conductivity (298.15 K, x1 = 0.103) of 3.7 S/m. The viscosity (298.15 K, x1 = 0.103) was 4.14 mPa·s, the electrical conductivity (298.15 K, x1 = 0.151) was 3.2 S/m and the viscosity (298.15 K, x1 = 0.151) was 6.06 mPa·s. It also gave an electrical conductivity (298.15 K, x1 = 0.229) of 2.5 S/m, a viscosity (298.15 K, x1 = 0.229) of 9.33 mPa·s and an electrical conductivity (298.15 K, x1 = 0.303) of 2 S/m. The viscosity (298.15 K, x1 = 0.303) was 12.9 mPa·s, the electrical conductivity (298.15 K, x1 = 0.473) was 1.2 S/m and the viscosity (298.15 K, x1 = 0.473) was 22.9 mPa·s. It also gave an electrical conductivity (298.15 K, x1 = 0.588) of 0.92 S/m, a viscosity (298.15 K, x1 = 0.588) of 32.7 mPa·s and an electrical conductivity (298.15 K, x1 = 0.642) of 0.81 S/m. The viscosity (298.15 K, x1 = 0.642) was 38.3 mPa·s, the electrical conductivity (298.15 K, x1 = 1) was 0.4 S/m and the viscosity (298.15 K, x1 = 1) was 95.5 mPa·s. The viscosity (303.15 K, x1 = 0.001) was 0.81 mPa·s, the viscosity (303.15 K, x1 = 0.003) was 0.84 mPa·s and the viscosity (303.15 K, x1 = 0.004) was 0.87 mPa·s. It also gave a viscosity (303.15 K, x1 = 0.006) of 0.91 mPa·s, a viscosity (303.15 K, x1 = 0.008) of 0.96 mPa·s and a viscosity (303.15 K, x1 = 0.013) of 1.06 mPa·s. For the same compound, the viscosity (303.15 K, x1 = 0.019) was 1.21 mPa·s, the viscosity (303.15 K, x1 = 0.032) was 1.5 mPa·s and the viscosity (303.15 K, x1 = 0.071) was 2.6 mPa·s. It also gave a viscosity (303.15 K, x1 = 0.103) of 3.59 mPa·s, a viscosity (303.15 K, x1 = 0.151) of 5.22 mPa·s and a viscosity (303.15 K, x1 = 0.229) of 7.98 mPa·s. It also gave a viscosity (303.15 K, x1 = 0.303) of 10.9 mPa·s, a viscosity (303.15 K, x1 = 0.473) of 19.3 mPa·s and a viscosity (303.15 K, x1 = 0.588) of 27.2 mPa·s. It also gave a viscosity (303.15 K, x1 = 0.642) of 31.7 mPa·s, a viscosity (303.15 K, x1 = 1) of 75.4 mPa·s and an electrical conductivity (313.15 K, x1 = 0.001) of 0.39 S/m. It also gave a viscosity (313.15 K, x1 = 0.001) of 0.66 mPa·s, an electrical conductivity (313.15 K, x1 = 0.004) of 1.5 S/m and a viscosity (313.15 K, x1 = 0.004) of 0.71 mPa·s. For the same compound, the electrical conductivity (313.15 K, x1 = 0.006) was 2 S/m, the viscosity (313.15 K, x1 = 0.006) was 0.74 mPa·s and the electrical conductivity (313.15 K, x1 = 0.032) was 5.1 S/m. For the same compound, the viscosity (313.15 K, x1 = 0.032) was 1.2 mPa·s, the electrical conductivity (313.15 K, x1 = 0.047) was 5.7 S/m and the viscosity (313.15 K, x1 = 0.047) was 1.51 mPa·s. It also gave an electrical conductivity (313.15 K, x1 = 0.071) of 5.8 S/m, a viscosity (313.15 K, x1 = 0.071) of 2.03 mPa·s and an electrical conductivity (313.15 K, x1 = 0.103) of 5.4 S/m. For the same compound, the viscosity (313.15 K, x1 = 0.103) was 2.77 mPa·s, the electrical conductivity (313.15 K, x1 = 0.229) was 3.7 S/m and the viscosity (313.15 K, x1 = 0.229) was 6 mPa·s. It also gave an electrical conductivity (313.15 K, x1 = 0.303) of 3 S/m, a viscosity (313.15 K, x1 = 0.303) of 8.15 mPa·s and an electrical conductivity (313.15 K, x1 = 0.473) of 1.9 S/m. The viscosity (313.15 K, x1 = 0.473) was 14.1 mPa·s, the electrical conductivity (313.15 K, x1 = 1) was 0.73 S/m and the viscosity (313.15 K, x1 = 1) was 49.4 mPa·s.

— a compilation of properties of binary mixtures (doi:10.1021/acs.jpcb.8b11892)
